Test results as given in US10663548B2, “System and method for magnetic resonance imaging” (The University of Western Ontario, priority 2008, dated 2020).
Where two headings read alike, the source gives them in different places.

Key:
albumin [1] = assay: Relaxivity in the presence and absence of albumin at 1.5 T; assay type: physicochemical
Procedure: To characterize the efficacy of an activatable contrast agent, the relaxivity enhancement ratio, that is the ratio of the activated relaxivity to the inactivated relaxivity can be defined. For Vasovist at a magnetic field strength equal to 1.5 T, the relaxivities in the presence and absence of albumin are 19 s^−1 mM^−1 and 5.2 s^−1 mM^−1 respectively, resulting in a relaxivity enhancement ratio of 3.7. From FIG. 3 it can be seen that the Vasovist relaxivity enhancement ratio peaks in the vicinity of a magnetic filed strength equal to 0.5 T, and falls quickly for magnetic field strengths above that value.
Defining R1′ and r1′ as the partial derivatives of R1 and r1 with respect to the polarizing magnetic field B0 results in R1′=R1Unenhanced′+r1′*[CA]. Applying the approximation that R1′Unenhanced≈0 for magnetic fields above 1.0 T, results in the expression R1′≈r1′*[CA]. […] For Vasovist, the relaxivity slope enhancement ratio (ratio of activated r1′ to inactivated r1′) is 90 at a magnetic field strength equal to 1.5 T. This represents a 25-fold increase over the absolute relaxivity enhancement ratio of 3.7 mentioned above. The high specificity of DREMR enhancement is not specific to Vasovist but applies to any T1 contrast agent that undergoes binding to large molecules (15).

rabbit serum albumin = target: T1, rabbit serum albumin (Oryctolagus cuniculus, UniProt P49065); assay: MRI phantom imaging (T1 weighted and DREMR) with and without rabbit serum albumin; details: 1.5 T, 21° C.
T1 construct: purchased Sigma-Aldrich batch 104K7560 (catalogue number not given)
Procedure: The particular choice of agent/protein pair was based by the availability of the contrast agent and its well-documented relaxivity mechanisms, rather than any specific clinical or research interest in albumin.
An MRI phantom (see FIG. 5a) was constructed that held two columns of six rows of glass tubes; each tube 3 cm in length with a 0.4 mL capacity. The sample tubes in the left column were filled with 0.01 M phosphate buffered saline (PBS) (NaCl 0.138M, KCl 0.0027M, pH 7.4 at 25° C.). The right column of sample tubes held a solute of rabbit serum albumin (Sigma-Aldrich, batch 104K7560, agarose gel electrophoresis) in PBS. The albumin, purchased as a lyophilized powder, was dissolved in PBS, at a 4.5% weight to volume ratio resulting in ˜0.67 mM concentration. Vasovist (0.25 mmol/mL) was added in equal concentration to both columns to achieve sample concentrations of 0, 10, 20, 40, 80 and 160 μM as a function of descending rows.
Imaging was performed on a Sigma LX 1.5 T clinical MRI machine (General Electric Healthcare), equipped with an actively shielded electromagnetic ΔB insert (19). […]

human serum albumin = human serum albumin (Homo sapiens, UniProt P02768); details: cited from earlier work; for increase of relaxivity of the bound form: in the presence of human serum albumin
albumin [2] = details: 1.5 T, cited from earlier work
myeloperoxidase = target: T2, myeloperoxidase (Homo sapiens, UniProt P05164); details: in the presence of active myeloperoxidase; cited from earlier work
T2 sequence (P05164 49-745): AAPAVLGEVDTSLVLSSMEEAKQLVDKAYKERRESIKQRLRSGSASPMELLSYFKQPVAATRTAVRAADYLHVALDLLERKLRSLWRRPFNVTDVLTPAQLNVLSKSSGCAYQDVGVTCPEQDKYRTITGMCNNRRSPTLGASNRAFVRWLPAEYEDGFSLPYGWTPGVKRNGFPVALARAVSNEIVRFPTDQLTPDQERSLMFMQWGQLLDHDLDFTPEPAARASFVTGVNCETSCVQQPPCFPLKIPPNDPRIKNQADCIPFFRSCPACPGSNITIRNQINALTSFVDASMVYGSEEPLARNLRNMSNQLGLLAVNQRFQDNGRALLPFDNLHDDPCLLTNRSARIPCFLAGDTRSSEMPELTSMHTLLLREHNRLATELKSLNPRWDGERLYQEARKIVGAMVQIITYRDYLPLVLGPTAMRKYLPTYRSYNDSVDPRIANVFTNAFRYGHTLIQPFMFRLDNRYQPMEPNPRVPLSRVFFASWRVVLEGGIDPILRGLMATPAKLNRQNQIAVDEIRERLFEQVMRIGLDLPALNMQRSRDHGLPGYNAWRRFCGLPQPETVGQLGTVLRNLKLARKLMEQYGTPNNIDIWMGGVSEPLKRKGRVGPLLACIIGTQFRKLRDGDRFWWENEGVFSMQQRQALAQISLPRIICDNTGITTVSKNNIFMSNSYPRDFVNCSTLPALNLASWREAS

Sequence of human serum albumin (P02768 25-609): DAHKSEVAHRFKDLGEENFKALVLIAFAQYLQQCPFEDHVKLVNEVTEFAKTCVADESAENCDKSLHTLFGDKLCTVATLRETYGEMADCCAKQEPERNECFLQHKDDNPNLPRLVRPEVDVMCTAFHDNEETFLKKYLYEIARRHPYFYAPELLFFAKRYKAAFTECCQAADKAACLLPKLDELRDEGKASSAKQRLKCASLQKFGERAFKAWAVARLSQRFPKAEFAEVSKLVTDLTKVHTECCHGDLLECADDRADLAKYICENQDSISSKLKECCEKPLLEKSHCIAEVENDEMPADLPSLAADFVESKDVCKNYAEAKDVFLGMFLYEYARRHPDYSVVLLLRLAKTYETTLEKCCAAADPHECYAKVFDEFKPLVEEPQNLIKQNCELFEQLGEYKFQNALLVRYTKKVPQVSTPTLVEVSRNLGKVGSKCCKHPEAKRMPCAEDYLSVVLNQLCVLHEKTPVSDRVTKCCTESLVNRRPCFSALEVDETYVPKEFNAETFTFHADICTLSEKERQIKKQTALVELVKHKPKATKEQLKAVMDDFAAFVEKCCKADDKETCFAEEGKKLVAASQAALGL
T1 sequence (P49065 25-608): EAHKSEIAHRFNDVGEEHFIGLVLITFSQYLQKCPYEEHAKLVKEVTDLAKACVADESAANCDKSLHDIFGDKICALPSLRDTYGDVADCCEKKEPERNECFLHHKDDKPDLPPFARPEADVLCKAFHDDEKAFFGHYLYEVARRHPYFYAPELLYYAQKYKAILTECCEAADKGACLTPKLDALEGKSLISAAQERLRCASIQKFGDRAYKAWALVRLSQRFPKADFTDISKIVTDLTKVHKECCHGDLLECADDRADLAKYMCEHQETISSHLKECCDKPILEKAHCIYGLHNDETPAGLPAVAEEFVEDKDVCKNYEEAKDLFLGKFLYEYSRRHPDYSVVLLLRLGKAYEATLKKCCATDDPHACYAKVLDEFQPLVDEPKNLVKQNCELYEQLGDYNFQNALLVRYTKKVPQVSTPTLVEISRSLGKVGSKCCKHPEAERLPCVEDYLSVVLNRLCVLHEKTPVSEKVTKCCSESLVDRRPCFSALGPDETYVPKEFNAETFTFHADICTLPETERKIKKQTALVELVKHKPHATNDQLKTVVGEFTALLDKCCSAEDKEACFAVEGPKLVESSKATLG

Compound	increase of relaxivity slope enhancement ratio over absolute relaxivity enhancement ratio (albumin [1]; 1.5 T)	relaxivity enhancement ratio (activated relaxivity to inactivated relaxivity) (albumin [1]; 1.5 T)	relaxivity slope enhancement ratio (activated r1′ to inactivated r1′) (albumin [1]; 1.5 T)	magnetic field strength at which the relaxivity enhancement ratio peaks (albumin [1]; from FIG. 3)	DREMR image intensity, albumin samples (rabbit serum albumin; 4.5% rabbit serum albumin in PBS, ±70 mT ΔB)	standard T1 weighted spin-echo image intensity (rabbit serum albumin; albumin solution and PBS samples, 0-160 μM)	binding to human serum albumin (human serum albumin)	increase of relaxivity of the bound form (human serum albumin; 30 Mhz)	increase of relaxivity of the bound form (human serum albumin; 60 MHz)	relaxivity (albumin [2]; absence of albumin)	relaxivity (albumin [2]; presence of albumin)	relaxivity change on conversion to oligomeric form (myeloperoxidase)
O=C([O-])CN(CCN(CC(=O)[O-])CC(COP(=O)([O-])OC1CCC(c2ccccc2)(c2ccccc2)CC1)N(CC(=O)[O-])CC(=O)[O-])CC(=O)[O-].[Gd+3].[Na+].[Na+].[Na+] (stereo not drawn) [Vasovist, Gadofosveset trisodium]	25 fold	3.7	90	~0.5 T	continued to demonstrate dependence on Vasovist concentration	demonstrated significant dependence on Vasovist concentration	strong non-covalent binding	approximately an order of magnitude	approximately four-fold	5.2 s⁻¹ mM⁻¹	19 s⁻¹ mM⁻¹	–
O=C([O-])CN(CCN(CC(=O)[O-])CC(=O)NCCc1c[nH]c2ccc(O)cc12)CCN(CC(=O)[O-])CC(=O)NCCc1c[nH]c2ccc(O)cc12.[Gd+3] [bis-5-HT-DTPA(Gd)]	–	–	–	–	–	–	–	–	–	–	–	enhanced relaxivity
